Measurements taken from paper PMC5789847, “Bismuth antimicrobial drugs serve as broad-spectrum metallo-β-lactamase inhibitors” (Nature Communications, 2018).
Values joined by “and” are separate entries in the source; they are usually repeats but may differ in a detail not shown here. Equal entries are not always repeated.

How the values were obtained:
IMP-BL21 (IMP-4^+) = assay: microbe, parasite or virus in culture; type: cell-based, E. coli; settings: IMP-BL21
Method: (§1) MIC values were determined by standard broth micro-dilution method (Clinical and Laboratory Standards Institute (CLSI) M100-S20, 2010)[64]. Briefly, bacterial cells were cultured in LB broth overnight at 37 °C at 250 rpm and the OD was measured at 600 nm (OD600). The bacterial density was adjusted to about 1 × 10^6 CFU mL^−1 and checked by CFU counting on agar plates afterwards. Tested antibiotics or Bi(III) compounds were added triplicately into individual wells of flat-bottomed 96-well plates and performed 2-fold serial dilution, followed by addition of prepared bacterial inocula. The plate was then incubated at 37 °C for overnight. […] The MIC was determined as the lowest concentration of a drug that could inhibit the growth of microorganism by both visual reading and OD reading at 600 nm using a microtiter plate reader.
(§2) Resulting growth (or lack of growth) was examined after overnight culturing and the lowest concentration that inhibits 99.9% of the original culture was taken as MBC.
(§3) Other procedures were kept strictly the same. […] Synergism was defined when FICI ≤ 0.5, indifference was defined when FICI > 0.5 and < 4, and antagonism was defined when FICI≥4[65]. […] All of the determinations were performed at least in triplicate on different days.

NDM-HK (NDM-1^+) = assay: microbe, parasite or virus in culture; type: cell-based, E. coli; settings: NDM-HK; for FICI: MER + compound, 256 µg mL^-1 set as MIC of Bi(III), 128 for Bi(NAC)3
Method: as §1, §2, §3

VIM-BL21 (VIM-2^+) = assay: microbe, parasite or virus in culture; type: cell-based, E. coli; settings: VIM-BL21; for FICI: MER + compound, 256 µg mL^-1 set as MIC of Bi(III)
Method: as §1, §2, §3

[1] = tested on: NDM-K. pneumonia (NDM-1^+); assay: Microdilution MIC/MBC and checkerboard assay; type: cell-based, Klebsiella pneumonia; settings: for MBC of MER in combination with compound at 32 µg mL^-1 / MIC of MER in combination with compound at 32 µg mL^-1: NDM-K. pneumonia (NDM-KP)
Method: as §1, §2, §3

[2] = tested on: NDM-C. freundii (NDM-1^+); assay: Microdilution MIC/MBC and checkerboard assay; type: cell-based, Citrobacter freundii; settings: for MBC of MER in combination with compound at 32 µg mL^-1 / MIC of MER in combination with compound at 32 µg mL^-1: NDM-C. freundii (NDM-CF)
Method: as §1, §2, §3

NDM-1 [3] = target: T1, NDM-1 (Klebsiella pneumoniae, UniProt C7C422); type: biochemical; settings: NDM-1 50 nM, 1 h preincubation, MER substrate
Method: (§4) Freshly prepared 50 nM of Zn2-NDM-1, Zn2-VIM-2, or Zn2-IMP-4 in 50 mM HEPES/Na pH 7.0, 100 mM NaCl were first incubated with various concentrations of CBS for 1 h at 25 °C, then mixed with equal volume of 0.2 mM MER. The assay was performed in a 1 cm quartz cuvette using the kinetic mode on a Varian Cary50 UV-visible spectrophotometer at 25 °C. The decrease in absorbance at 300 nm due to ring-opening of MER was monitored every second for a duration of 10 min until the reaction was completed. The initial rates were extracted and calculated from each reaction curves for fitting IC50 curves.
Target sequence in this assay (C7C422 29-270, looked up, species assumed): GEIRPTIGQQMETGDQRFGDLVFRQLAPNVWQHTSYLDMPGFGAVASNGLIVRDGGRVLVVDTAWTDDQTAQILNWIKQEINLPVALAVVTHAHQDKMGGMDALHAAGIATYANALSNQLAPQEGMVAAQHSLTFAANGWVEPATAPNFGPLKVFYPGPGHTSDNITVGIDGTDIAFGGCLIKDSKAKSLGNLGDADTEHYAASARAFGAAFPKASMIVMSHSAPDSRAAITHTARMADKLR

VIM-2 = VIM-2 (Escherichia coli, UniProt Q5U7L7); type: biochemical; settings: VIM-2 50 nM, 1 h preincubation, MER substrate
Method: as §4

IMP-4 = assay: IC50 enzyme inhibition assay; type: biochemical; settings: IMP-4 50 nM, 1 h preincubation, MER substrate
Method: as §4

NDM-1 [4] = target: T1, NDM-1; type: biochemical; settings: MER substrate 10 to 150 µM
Target sequence in this assay (C7C422 29-270, looked up, species assumed): as above
Method: NDM-1 (50 nM) was incubated with Bi(NIT)3 (0.5, 1.0, and 1.5 µM) for 1 h at 25 °C with gentle shaking. The assay was performed in a 96-well microplate reader at 298 K. The final assay buffer contains 50 mM HEPES at pH 7.0, 100 mM NaCl, with MER as the substrate ranging from 10 to 150 µM. Control experiment was also performed in the absence of inhibitors under the same conditions. The Km and Vmax for both the uninhibited and inhibited reactions were obtained by fitting the data into the double reciprocal Lineweaver–Burk plots.

NDM-HK = settings: for growth inhibition based on optical density (OD) reading: metal compound 10, 50, 200 µM with MER at ½MIC (8 μg mL^−1), 24 h
Method: Metal salts used for the screening involved bismuth nitrate (Bi(III)), gallium nitrate (Ga(III)), sodium stibogluconate (Sb(V)), chromium chloride (Cr(III)), cobalt chloride (Co(II)), nickel chloride (Ni(II)), ruthenium chloride (Ru(II)), and copper sulfate (Cu(II)). Briefly, different concentrations (10, 50, and 200 μM) of metal compounds were added to LB medium containing 8 μg mL^−1 of MER in 96-well plates. About 2 × 10^6 CFU mL^−1 logarithmic cultures of NDM-HK were added to each well of the plates and co-incubated for overnight. The growth inhibition of bacteria was monitored by OD reading at 600 nm and serial dilution in LB agar plate. Wells with no antibiotics or metal compounds served as growth controls, and wells with no bacteria added served as background controls. Each test was performed in triplicate. The inhibition was calculated as [1−(ODsample−ODbackground)/(ODcontrol−ODbackground)] ×100%. CFU was counting by 10-fold serial dilution in PBS and 10 μL was spotted in LB agar plate.

NDM-1 [5] = target: T1, NDM-1; type: cell-based; parameters: endogenous in cells; host or cells: E. coli clinical isolate NDM-HK; settings: NDM-HK cultured with 100 µM compound; control 50.1 °C
Method: The cellular thermal shift assay was performed according to a standard method. Clinical isolate of NDM-1-positive E. coli (NDM-HK) was cultured overnight in the absence or presence of 100 µM Bi(III) compounds, i.e., CBS, Bi(NAC)3, Bi(NIT)3. The bacterial pellets were harvested and washed with PBS for 4 times. The cell suspensions were aliquoted into PCR tubes and heat treatment was performed at the designated temperature ranging from 40 °C to 70 °C for 3 min in a 96-well thermal cycler. The tubes were cooled immediately at room temperature for another 3 min after heating and the heating procedures were repeated for three cycles. For the cell lysis, the samples were frozen–thawed for two cycles in liquid nitrogen and thermal cycler set at 25 °C. The samples were vortexed gently after each cycle and were centrifuged at 20,000 × g to obtain the supernatant when the second cycle was finished. All the samples were subjected to western blot analysis for detection and quantification of NDM-1 content as described above.
Target sequence in this assay (C7C422 29-270 limits assumed): as the sequence (C7C422 29-270, looked up, species assumed) above

## O=[N+]([O-])[O-].O=[N+]([O-])[O-].O=[N+]([O-])[O-].[Bi+3] [Bi(NIT)3, bismuth nitrate]
IMP-BL21 (IMP-4^+)
  MBC of MER in combination with compound at 32 µg mL^-1: 8 µg/mL
  MIC of MER in combination with compound at 32 µg mL^-1: 4 µg/mL
IMP-BL21 (IMP-4^+); MER + compound, 256 µg mL^-1 set as MIC of Bi(III)
  FICI: 0.250
NDM-HK (NDM-1^+)
  MBC of Bi(III) compound/inhibitor alone: > 256 µg/mL
  MBC of MER in combination with compound at 32 µg mL^-1: 4 µg/mL
  MIC of Bi(III) compound/inhibitor alone: > 256 µg/mL
  MIC of MER in combination with compound at 32 µg mL^-1: 2 µg/mL
  FICI: 0.266
VIM-BL21 (VIM-2^+)
  MBC of MER in combination with compound at 32 µg mL^-1: 2 µg/mL
  MIC of MER in combination with compound at 32 µg mL^-1: 1 µg/mL
  FICI: 0.063
[1]
  MBC of MER in combination with compound at 32 µg mL^-1: 1 µg mL^-1 and 1/1 µg mL^-1
  MIC of MER in combination with compound at 32 µg mL^-1: 1 µg mL^-1 and 1/1 µg mL^-1
[1]; NDM-KP
  MBC of Bi(III) compound alone: > 256 µg/mL
  MIC of Bi(III) compound alone: > 256 µg/mL
[1]; NDM-KP, MER + compound, 256 µg mL^-1 set as MIC of Bi(III)
  FICI: 0.125
[2]
  MBC of MER in combination with compound at 32 µg mL^-1: 4 µg/mL
  MIC of MER in combination with compound at 32 µg mL^-1: 2 µg/mL
[2]; NDM-CF
  MBC of Bi(III) compound alone: > 256 µg/mL
  MIC of Bi(III) compound alone: > 256 µg/mL
[2]; NDM-CF, MER + compound, 256 µg mL^-1 set as MIC of Bi(III)
  FICI: 0.375
NDM-1 [3]
  IC50: 0.7 ± 0.13 µM
VIM-2
  IC50: 1.2 ± 0.13 µM
IMP-4
  IC50: 0.99 ± 0.19 µM
NDM-1 [4]
  inhibition mode (Lineweaver Burk plot): either a non-competitive or an irreversible inhibition mode
NDM-HK; MER 8 μg mL-1 + metal compound 10 μM
  colony-forming unit (CFU) counting on agar plate after serial dilutions: no colony was observed
NDM-HK
  growth inhibition based on optical density (OD) reading: > 90%
NDM-1 [5]
  NDM-1 melting temperature, treated group: 48.1 °C

## CC(C)([S][Bi+][S]C(C)(C)C(N)C(=O)O)C(N)C(=O)O (stereo not shown) [Bi(PCM)2]
IMP-BL21 (IMP-4^+)
  MBC of MER in combination with compound at 32 µg mL^-1: 2 µg/mL
  MIC of MER in combination with compound at 32 µg mL^-1: 1 µg/mL
NDM-HK (NDM-1^+)
  MBC of Bi(III) compound/inhibitor alone: > 256 µg/mL
  MBC of MER in combination with compound at 32 µg mL^-1: 2 µg/mL
  MIC of Bi(III) compound/inhibitor alone: > 256 µg/mL
  MIC of MER in combination with compound at 32 µg mL^-1: 2 µg/mL
  FICI: 0.313
VIM-BL21 (VIM-2^+)
  MBC of Bi(III) compound alone: > 256 µg/mL
  MBC of MER in combination with compound at 32 µg mL^-1: 2 µg/mL
  MIC of Bi(III) compound alone: > 256 µg/mL
  MIC of MER in combination with compound at 32 µg mL^-1: 1 µg/mL
  FICI: 0.093
[1]
  MBC of MER in combination with compound at 32 µg mL^-1: 8 µg/mL
  MIC of MER in combination with compound at 32 µg mL^-1: 2 µg/mL
[2]
  MBC of MER in combination with compound at 32 µg mL^-1: 2/2 µg mL^-1
  MIC of MER in combination with compound at 32 µg mL^-1: 2/2 µg mL^-1
NDM-1 [3]
  IC50: 2.8 ± 0.11 µM
VIM-2
  IC50: 3.71 ± 1.19 µM
IMP-4
  IC50: 1 ± 0.37 µM

## O=[N+]([O-])[O-].O=[N+]([O-])[O-].O=[N+]([O-])[O-].[Ga+3] [gallium nitrate]
NDM-HK (NDM-1^+)
  MIC of Bi(III) compound/inhibitor alone: greater than 256 µg mL^-1
NDM-HK
  growth inhibition based on optical density (OD) reading: > 90%
